Experimental data taken from patent US20140343095A1, “Methods of Diagnosing and Treating Multiple Sclerosis” (The Brigham and Women's Hospital, Inc., priority 2009, published 2014).

Legend:
PARP-1 [1] = molecular target: T1, PARP-1 (Homo sapiens, UniProt P09874); test: PARP-1 enzymatic activity in human PBMCs (PARP HT Universal Colorimetric Kit); format: cell-based; parameters: endogenous in cells; host or cells: human PBMCs / monocytes / dendritic cells / T and B cells from healthy controls and MS patients; details: healthy controls, 1 ug/ml 15-HC
Protocol: PARP-1 enzymatic activity (10A) and TNFalpha and CCL2 (10B) of PBMCs incubated with 15-HC alone, or in combination with AIQ, blocking antibodies to TLR2 or IC control.
To investigate whether the TLR2/PARP-1 axis is functional in human we activated PBMCs from healthy controls with 15-HC, in the presence or not of PARP-1 or TLR2 inhibitors.
Target sequence in this assay (P09874 whole entry): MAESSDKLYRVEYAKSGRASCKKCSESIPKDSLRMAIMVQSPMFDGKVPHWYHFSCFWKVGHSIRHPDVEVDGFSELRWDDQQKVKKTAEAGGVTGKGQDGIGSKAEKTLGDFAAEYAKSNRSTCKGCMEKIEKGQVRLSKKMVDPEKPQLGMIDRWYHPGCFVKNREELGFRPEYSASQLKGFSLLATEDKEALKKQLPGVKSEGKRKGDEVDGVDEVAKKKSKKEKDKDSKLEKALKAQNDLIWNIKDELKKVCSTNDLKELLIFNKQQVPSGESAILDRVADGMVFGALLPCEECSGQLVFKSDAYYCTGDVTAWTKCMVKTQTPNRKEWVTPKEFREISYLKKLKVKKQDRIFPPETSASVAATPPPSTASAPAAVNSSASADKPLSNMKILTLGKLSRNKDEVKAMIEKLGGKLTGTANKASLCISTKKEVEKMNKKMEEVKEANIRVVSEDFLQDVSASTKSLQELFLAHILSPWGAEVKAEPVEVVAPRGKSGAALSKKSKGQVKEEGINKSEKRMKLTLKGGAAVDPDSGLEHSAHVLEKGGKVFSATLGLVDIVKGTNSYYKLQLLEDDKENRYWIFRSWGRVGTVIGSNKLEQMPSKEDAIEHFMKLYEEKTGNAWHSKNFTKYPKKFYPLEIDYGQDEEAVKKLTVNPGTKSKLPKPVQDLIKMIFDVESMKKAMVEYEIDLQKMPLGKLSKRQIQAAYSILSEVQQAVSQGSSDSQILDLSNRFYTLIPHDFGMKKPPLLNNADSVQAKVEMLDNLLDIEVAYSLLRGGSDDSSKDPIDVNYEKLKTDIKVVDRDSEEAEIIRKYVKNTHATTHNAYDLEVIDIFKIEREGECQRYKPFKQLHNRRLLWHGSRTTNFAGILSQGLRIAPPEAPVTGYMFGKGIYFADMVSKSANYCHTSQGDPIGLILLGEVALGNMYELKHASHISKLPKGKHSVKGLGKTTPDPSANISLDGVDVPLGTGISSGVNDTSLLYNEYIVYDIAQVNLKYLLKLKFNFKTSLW

PARP-1 [2] = molecular target: PARP-1 (Mus musculus, UniProt P11103); test: Cellular PARP-1 activity in microglia, macrophages or astrocytes; format: cell-based; parameters: host or cells: C8B4 microglia, C8-D1A astrocytes, Raw 264.7 macrophages
Sequence of PARP-1 (Mus musculus, UniProt P11103) (P11103 whole entry): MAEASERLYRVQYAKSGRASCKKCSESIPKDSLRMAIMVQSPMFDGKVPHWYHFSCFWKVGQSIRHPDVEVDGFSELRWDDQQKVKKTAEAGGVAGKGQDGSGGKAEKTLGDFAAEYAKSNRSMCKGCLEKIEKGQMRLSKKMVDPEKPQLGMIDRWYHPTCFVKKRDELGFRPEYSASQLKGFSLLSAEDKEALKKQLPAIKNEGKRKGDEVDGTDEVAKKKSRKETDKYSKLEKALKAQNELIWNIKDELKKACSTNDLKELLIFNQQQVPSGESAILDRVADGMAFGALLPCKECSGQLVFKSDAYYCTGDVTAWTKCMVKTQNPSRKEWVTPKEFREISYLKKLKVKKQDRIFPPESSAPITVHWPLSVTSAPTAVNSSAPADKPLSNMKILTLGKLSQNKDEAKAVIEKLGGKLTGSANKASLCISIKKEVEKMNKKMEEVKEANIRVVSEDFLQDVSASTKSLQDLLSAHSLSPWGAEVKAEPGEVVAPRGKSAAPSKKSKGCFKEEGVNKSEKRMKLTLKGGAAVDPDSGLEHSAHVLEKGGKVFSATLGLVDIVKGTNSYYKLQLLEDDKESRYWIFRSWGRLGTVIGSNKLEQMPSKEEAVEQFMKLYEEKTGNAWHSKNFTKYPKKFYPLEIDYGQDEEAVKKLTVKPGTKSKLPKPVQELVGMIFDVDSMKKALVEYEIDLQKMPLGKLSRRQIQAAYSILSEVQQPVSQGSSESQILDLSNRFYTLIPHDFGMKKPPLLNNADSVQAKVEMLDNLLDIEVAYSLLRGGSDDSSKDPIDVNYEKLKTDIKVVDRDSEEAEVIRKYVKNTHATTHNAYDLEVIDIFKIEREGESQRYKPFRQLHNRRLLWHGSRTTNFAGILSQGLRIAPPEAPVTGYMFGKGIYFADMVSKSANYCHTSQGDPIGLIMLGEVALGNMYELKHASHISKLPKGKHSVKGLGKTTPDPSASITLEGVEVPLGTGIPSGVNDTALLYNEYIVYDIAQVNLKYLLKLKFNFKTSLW
Protocol: 5A, a bar graph showing the time course of microglial PARP-1 activation by 15-oxysterols or 7-KC. PARP-1 activity is shown as Mean±SEM. […] (Mean±SEM) 5C, a bar graph showing activation of microglial PARP-1 by 15-HC in the presence of kinase inhibitors (Mean±SEM).
PARP-1 activity was measured using PARP HT Universal Colorimetric Kit (Trevigen, MD, USA), following manufacturer instructions.
Cells were cultured with DMEM supplemented with 10% fetal bovine serum, 2 mM L-glutamine, 25 mM HEPES, and 1 mM sodium pyruvate. Cells in logarithmic growth were treated with 1 μg/ml of 15-HC for 1, 5, 15, and 30 minutes in serum-free medium. Blocking antibodies (Ebioscience, San Diego, Calif., USA) were added in some experiments at a final concentration of 10 ug/ml.

PARP-1 [3] = molecular target: T1, PARP-1; test: PARP-1 activity in a cell-free system with oxysterol-pretreated DNA; format: biochemical
Protocol: FIGS. 4A-D show the results of activation of microglia, macrophages and astrocytes by 15-HC. 4A, a bar graph showing PARP-1 activity in a cell-free system where recombinant PARP-1 was incubated with DNA which as been pretreated with 15-HC or 7-KC. Non-pretreated DNA was used as a negative control and ssb-DNA as a positive control. Data is shown as Mean±SEM. 4B, a pair of bar graphs showing PARP-1 activity measured in microglia, macrophages or astrocytes incubated with 15-HC or 7-KC. The data is shown as the fold of change between vehicle and lipid-treated cells (Mean±SEM). 4C, a pair of bar graphs showing percent inhibition of PARP-1 activity in microglia, macrophages or astrocytes activated with 15-HC or 7-KC […] in the presence of 5-AIQ. 4D, a table showing levels of TNF-α, CCL-2 and NO secretion by 15-HC or 7-KC treated microglia, macrophages or astrocytes (Mean±SEM).
Thus, the effect of 15-HC on PARP-1 activity was investigated using an in vitro system.
Target sequence in this assay (P09874 whole entry, species assumed): as the sequence (P09874 whole entry) above

TLR2 = test: PARP-1 activity in HEK-293 cells transfected or not with TLR2; format: cell-based, human
From the text: FIGS. 6A-B are bar graphs showing that PARP-1 activation by 15-HC is mediated by TLR2 A. TLR2 blocking antibody abrogates PARP-1 activation by 15a-HC. 6A, a set of three bar graphs showing PARP-1 activity in microglia, macrophages or astrocytes activated with 15-HC in the presence of blocking antibodies to TLR2 or TLR4, or isotype controls (Mean±SEM). 6B, a bar graph showing PARP-1 activity in HEK-293 cells transfected or not with a plasmid coding for TLR2 and activated with 15-HC (Mean±SEM).

PARP-1 [4] = test: FACS PARP-1 activity in innate and adaptive immune cells treated with HSP60 or 15-HC; format: cell-based, human; details: HSP60 1, 5, 10 ng/ml, 15-HC 1, 5, 10 ug/ml
From the text: FIGS. 17A-C are bar graphs showing that 15-HC, but not HSP60, activates PARP-1 in cells of the innate immune system. Mean PARP-1 activity as determined by FACS in classical monocytes (17A), inflammatory monocytes (17B) and dendritic cells (17C) of healthy controls (HC) treated with activated with HSP60, 15-HC or left untreated. The data are shown as mean fluorescence intensity (MFI)±SD of 5 samples/group.
FIGS. 18A-C are bar graphs showing that both 15-HC and HSP60 activate PARP-1 in cells of the adaptive immune system. Mean PARP-1 activity as determined by FACS in CD4+ T cells (18A), CD8+ T cells (18B) and B cells (18C) of healthy controls (HC) treated with activated with HSP60, 15-HC or left untreated. The data are shown as mean fluorescence intensity (MFI)±SD of 5 samples/group.
A new FACS-based method was developed to detect PARP-1 activation based on the intracellular detection of the PARP-1 product PAR with specific antibodies. Briefly, the cells were incubated with antibodies to CD16/32 to block unspecific antibody binding, and then stained for surface markers. […] The samples were then analyzed by FACS.
To investigate whether the increased activity of the TLR2/PARP-1 axis in SPMS patients resulted from increased levels of TLR2 ligands, the levels of 15-HC and HSP60 were measured in serum samples from healthy controls, RRMS and SPMS patients. […]

15-hydroxycholestene [15-HC]
PARP-1 enzymatic activity in human PBMCs (PARP-1 [1]): results in the activation
incubation time resulting in activation of PARP-1 (PARP-1 [2]; macrophages or microglia): 5 min
activation of cellular PARP-1 (PARP-1 [2]; macrophages, microglia or astrocytes): dose-dependent activation
PARP-1 activity, oxysterol alone (PARP-1 [3]; recombinant PARP-1 incubated with 15-HC alone): did not have a significant effect
PARP-1 activity, DNA pre-incubated with oxysterol (PARP-1 [3]; recombinant PARP-1 plus DNA pretreated with 15-HC): levels comparable to those achieved with 7-KC or single strand break DNA
PARP-1 activity in HEK-293 cells transfected with TLR2 (TLR2; transfected with a plasmid coding for TLR2): significant activation
PARP-1 activity in HEK-293 cells (TLR2; untransfected, does not express TLR2): no significant effect
PARP-1 activation in cells of the adaptive immune system (FIG. 18) (PARP-1 [4]; CD4+ T cells, CD8+ T cells, B cells of healthy controls): could activate
PARP-1 activation in cells of the innate immune system (FIG. 17) (PARP-1 [4]; classical monocytes, inflammatory monocytes, dendritic cells of healthy controls): only 15-HC could activate
